Patent US20250305931A1, “METHOD FOR ANALYZING A URINE SAMPLE, AND A REAGENT FOR ANALYZING A URINE SAMPLE” (SYSMEX CORPORATION, priority 2024, published 2025)

Assays:
[1] = test system: purified yeast fungus (C. glabrata); test: Staining of yeast-like fungi in spiked negative urine, flow cytometer UF-5000 SF channel, average fluorescence intensity of the yeast cluster; format: cell-based; conditions: for average value of the fluorescence intensity compared with when other compounds are used: concentrations of Table 2; for average value of the fluorescence intensity compared with 2-phenoxyethanol used alone: Example 2, compound mixed with 2-phenoxyethanol
Description: Each of the following substances was dissolved in purified water to prepare a buffer solution.
When the compound shown in the following table was not dissolved, the compound was used after filtration. […] Furthermore, a first reagent having the same composition as Diluting Liquid of EXAMPLE-1 of U.S. Patent Publication No. 2006/0073601 was prepared. The first reagent is represented by [2-phenoxyethanol(*)] in the following table. In the following table, the compound of the present embodiment is shown in bold.
UF-fluorocell SF for UF-5000 (Sysmex Corporation) was used. Such reagents include polymethine-based dyes and stain lipid bilayer membranes and porous protein aggregates of cells, and the like.
A purified yeast fungus (C. glabrata) was added to negative urine to a concentration of about 1800 cells/μL. In order to confirm the effect on red blood cells, human blood was added to negative urine so that the concentration of red blood cells was about 400 cells/μL. As the negative urine, a commercially available Normal Human Urine (Golden West Diagnostics, LLC) was filtered through a 0.22-μm membrane filter, and a urine specimen having a negative result in a sediment assay was used.
A measurement sample was prepared by mixing a first reagent and a second reagent with a urine sample, and measurement was performed using an SF channel of a flow cytometer UF-5000 (Sysmex Corporation), and a scattergram was prepared in which a forward scattered light intensity was taken on the vertical axis and a fluorescence intensity was taken on the horizontal axis. In measurement using the SF channel, red blood cells, crystals, a glass cylinder, a cylinder containing contents, and the like are measured. To calculate the average value of the fluorescence intensity of yeast fungi, an arbitrary region Y for each measurement was set, and the average value of the fluorescence intensity of a population of dots appearing in the region was calculated. Note that the value of the fluorescence intensity is a relative value when the minimum value of the horizontal axis in the scattergram is 0 and the maximum value is 255.
SF. Specifically, after mixing 362.5 μL of the first reagent, 125 μL of the urine specimen, and 12.5 μL of the second reagent, the measurement sample was prepared by stirring at about 39° C. for 9 seconds, and then flowed into the flow cell of the detection section. Information on scattered light and fluorescence emitted from particles in the measurement sample that received the laser beam was acquired by the detection unit. A scattergram was generated based on the obtained optical information.

[2] = test system: yeast-like fungi; test: Clinical urine specimens, staining of yeast-like fungi on the scattergram; format: cell-based; conditions: Example 4, chlorphenesin 3 g/L, or 1,2-octanediol 2 g/L with 2-phenoxyethanol 6 g/L, control UF-CELLPACK SF
Description: The following specimens were used as the specimen. • (1) Clinical specimen 1: a specimen in which yeast-like fungi and red blood cells are detected in a microscopy • (2) Clinical specimen 2 to 4: a specimen in which yeast-like fungi have been detected by microscopy • (3) Clinical specimen 5 to 10: a specimen in which red blood cells are detected in a microscopy
A urine sample was measured in the same manner as in Example 1, except that the first reagent was prepared by adding 3 g/L chlorphenesin or 6 g/L 2-phenoxyethanol and 2 g/L 1,2-octanediol to the buffer solution described in Example 1. In addition, a urine sample was measured in the same manner as in Example 1 using UF-CELLPACK SF (manufactured by Sysmex) as a first reagent as a control. UF-CELLPACK SF (manufactured by Sysmex) contained 6 g/L of 2-phenoxyethanol. In the following table, the compound of the present embodiment is shown in bold.

[3] = Example 1, 10 g/L in first reagent, final 7.3 g/L, filtered if not dissolved, relative scale 0-255

For `CCCCCCCCC(O)CO` (stereo not drawn) [1,2-DECANEDIOL, 1,2-decanediol], the “AVERAGE VALUE OF FLUORESCENT SIGNAL INTENSITY” value ([1]; Example 1, 1 g/L in first reagent, final 0.7 g/L, relative scale 0-255) was 252.7.
With `Oc1ccccc1-c1ccccc1` [ORTHOPHENYLPHENOL, orthophenylphenol] the “AVERAGE VALUE OF FLUORESCENT SIGNAL INTENSITY” value ([1]; Example 1, 3 g/L in first reagent, final 2.2 g/L, relative scale 0-255) was 250.1 and the “average value of the fluorescence intensity compared with when other compounds are used” value ([1]; Example 1) was “significantly larger”.
`COc1cccc(OCC(C)O)c1` (stereo not drawn) [1-(3-METHOXYPHENOXY)-2-PROPANOL, 1-(3-methoxyphenoxy)-2-propanol] was tested, and the “AVERAGE VALUE OF FLUORESCENT SIGNAL INTENSITY” value ([1]; Example 1, 9 g/L in first reagent, final 6.5 g/L, relative scale 0-255) was 246.8 and the “average value of the fluorescence intensity compared with when other compounds are used” value ([1]; Example 1) was “significantly larger”.
For `OCCCOc1ccccc1` [3-PHENOXY-1-PROPANOL, 3-phenoxy-1-propanol], the “AVERAGE VALUE OF FLUORESCENT SIGNAL INTENSITY” value ([1]; Example 1, 7 g/L in first reagent, final 5.1 g/L, relative scale 0-255) was 253.6, the “average value of the fluorescence intensity compared with when other compounds are used” value ([1]; Example 1) was “significantly larger” and the “average value of the fluorescence intensity compared with 2-phenoxyethanol used alone” value [1] was “significantly larger”.
In the case of `CCCCCCCCC(C)O` (stereo not drawn) [2-DECANOL, reference compound], the “AVERAGE VALUE OF FLUORESCENT SIGNAL INTENSITY” value [1, 3] is reported as 106.0.
In the case of `CCCCCCC(O)CO` (stereo not drawn) [1,2-OCTANEDIOL, 1,2-octanediol], the “staining of yeast-like fungi” value ([2]; clinical specimen 1 (yeast-like fungi and red blood cells)) is reported as “more strongly stained”, the “staining of yeast-like fungi” value ([2]; clinical specimens 2 to 4 rich in yeast-like fungi) is reported as “more strongly stained” and the “AVERAGE VALUE OF FLUORESCENT SIGNAL INTENSITY” value ([1]; Example 1, 6 g/L in first reagent, final 4.4 g/L, relative scale 0-255) is reported as 253.4. For the same compound, the “average value of the fluorescence intensity compared with 2-phenoxyethanol used alone” value [1] was “significantly larger”, the “AVERAGE VALUE OF FLUORESCENT SIGNAL INTENSITY” value ([1]; Example 3, 3 g/L in first reagent, final 2.2 g/L) was 222.1 and the “AVERAGE VALUE OF FLUORESCENT SIGNAL INTENSITY” value ([1]; Example 3, 4 g/L in first reagent, final 2.9 g/L) was 245.3. The “AVERAGE VALUE OF FLUORESCENT SIGNAL INTENSITY” value ([1]; Example 3, 5 g/L in first reagent, final 3.6 g/L) was 251.0 and the “AVERAGE VALUE OF FLUORESCENT SIGNAL INTENSITY” value ([1]; Example 3, 6 g/L in first reagent, final 4.4 g/L) was 252.1.
`CCCCC(O)CO` (stereo not drawn) [1,2-HEXANEDIOL, reference compound] was tested, and the “AVERAGE VALUE OF FLUORESCENT SIGNAL INTENSITY” value [1, 3] was 107.7.
`OCCCCCCCCO` [1,8-OCTANEDIOL, reference compound] was tested, and the “AVERAGE VALUE OF FLUORESCENT SIGNAL INTENSITY” value [1, 3] was 120.5.
For `COC(=O)c1ccc(O)cc1` [METHYLPARABEN, reference compound], the “AVERAGE VALUE OF FLUORESCENT SIGNAL INTENSITY” value ([1]; Example 1, 1.9 g/L in first reagent, final 1.4 g/L, relative scale 0-255) was 220.5.
With `CCCCCCC(C)O` (stereo not drawn) [2-OCTANOL, 2-octanol] the “AVERAGE VALUE OF FLUORESCENT SIGNAL INTENSITY” value [1, 3] was 240.6.
`OCCCCC(O)CO` (stereo not drawn) [1,2,6-HEXANETRIOL, reference compound] was tested, and the “AVERAGE VALUE OF FLUORESCENT SIGNAL INTENSITY” value [1, 3] was 80.5.
With `OCCOc1ccccc1` [2-PHENOXYETHANOL, 2-phenoxyethanol, reference compound] the “AVERAGE VALUE OF FLUORESCENT SIGNAL INTENSITY” value ([1]; Example 1, 7.5 g/L in first reagent, final 5.4 g/L, relative scale 0-255) was 196.9.
For `CCCCCC(C)O` (stereo not drawn) [2-HEPTANOL, 2-heptanol], the “AVERAGE VALUE OF FLUORESCENT SIGNAL INTENSITY” value [1, 3] was 250.1 and the “average value of the fluorescence intensity compared with 2-phenoxyethanol used alone” value [1] was “significantly larger”.
For `OCCOCCOc1ccccc1` [PHENYL DIGLYCOL, reference compound], the “AVERAGE VALUE OF FLUORESCENT SIGNAL INTENSITY” value [1, 3] was 165.0.
In the case of `CCCCCCCCCCC(O)CO` (stereo not drawn) [1,2-DODECANEDIOL, reference compound], the “AVERAGE VALUE OF FLUORESCENT SIGNAL INTENSITY” value ([1]; Example 1, 0.5 g/L in first reagent, final 0.4 g/L, relative scale 0-255) is reported as 107.6.
